Consider 26 compounds from patent US10765764B2, “Probes for imaging huntingtin protein” (CHDI Foundation, Inc., priority 2015, dated 2020).

Structures are written as SMILES.

The target in this test is T1, Q46 protein aggregates (Homo sapiens, UniProt P42858).
T1 construct: fused on or other part: An N-terminal GST tag, cleaved off with thrombin before the assay to trigger aggregation
T1 sequence (P42858 with tags, fused parts or gaps with the stated changes, form open): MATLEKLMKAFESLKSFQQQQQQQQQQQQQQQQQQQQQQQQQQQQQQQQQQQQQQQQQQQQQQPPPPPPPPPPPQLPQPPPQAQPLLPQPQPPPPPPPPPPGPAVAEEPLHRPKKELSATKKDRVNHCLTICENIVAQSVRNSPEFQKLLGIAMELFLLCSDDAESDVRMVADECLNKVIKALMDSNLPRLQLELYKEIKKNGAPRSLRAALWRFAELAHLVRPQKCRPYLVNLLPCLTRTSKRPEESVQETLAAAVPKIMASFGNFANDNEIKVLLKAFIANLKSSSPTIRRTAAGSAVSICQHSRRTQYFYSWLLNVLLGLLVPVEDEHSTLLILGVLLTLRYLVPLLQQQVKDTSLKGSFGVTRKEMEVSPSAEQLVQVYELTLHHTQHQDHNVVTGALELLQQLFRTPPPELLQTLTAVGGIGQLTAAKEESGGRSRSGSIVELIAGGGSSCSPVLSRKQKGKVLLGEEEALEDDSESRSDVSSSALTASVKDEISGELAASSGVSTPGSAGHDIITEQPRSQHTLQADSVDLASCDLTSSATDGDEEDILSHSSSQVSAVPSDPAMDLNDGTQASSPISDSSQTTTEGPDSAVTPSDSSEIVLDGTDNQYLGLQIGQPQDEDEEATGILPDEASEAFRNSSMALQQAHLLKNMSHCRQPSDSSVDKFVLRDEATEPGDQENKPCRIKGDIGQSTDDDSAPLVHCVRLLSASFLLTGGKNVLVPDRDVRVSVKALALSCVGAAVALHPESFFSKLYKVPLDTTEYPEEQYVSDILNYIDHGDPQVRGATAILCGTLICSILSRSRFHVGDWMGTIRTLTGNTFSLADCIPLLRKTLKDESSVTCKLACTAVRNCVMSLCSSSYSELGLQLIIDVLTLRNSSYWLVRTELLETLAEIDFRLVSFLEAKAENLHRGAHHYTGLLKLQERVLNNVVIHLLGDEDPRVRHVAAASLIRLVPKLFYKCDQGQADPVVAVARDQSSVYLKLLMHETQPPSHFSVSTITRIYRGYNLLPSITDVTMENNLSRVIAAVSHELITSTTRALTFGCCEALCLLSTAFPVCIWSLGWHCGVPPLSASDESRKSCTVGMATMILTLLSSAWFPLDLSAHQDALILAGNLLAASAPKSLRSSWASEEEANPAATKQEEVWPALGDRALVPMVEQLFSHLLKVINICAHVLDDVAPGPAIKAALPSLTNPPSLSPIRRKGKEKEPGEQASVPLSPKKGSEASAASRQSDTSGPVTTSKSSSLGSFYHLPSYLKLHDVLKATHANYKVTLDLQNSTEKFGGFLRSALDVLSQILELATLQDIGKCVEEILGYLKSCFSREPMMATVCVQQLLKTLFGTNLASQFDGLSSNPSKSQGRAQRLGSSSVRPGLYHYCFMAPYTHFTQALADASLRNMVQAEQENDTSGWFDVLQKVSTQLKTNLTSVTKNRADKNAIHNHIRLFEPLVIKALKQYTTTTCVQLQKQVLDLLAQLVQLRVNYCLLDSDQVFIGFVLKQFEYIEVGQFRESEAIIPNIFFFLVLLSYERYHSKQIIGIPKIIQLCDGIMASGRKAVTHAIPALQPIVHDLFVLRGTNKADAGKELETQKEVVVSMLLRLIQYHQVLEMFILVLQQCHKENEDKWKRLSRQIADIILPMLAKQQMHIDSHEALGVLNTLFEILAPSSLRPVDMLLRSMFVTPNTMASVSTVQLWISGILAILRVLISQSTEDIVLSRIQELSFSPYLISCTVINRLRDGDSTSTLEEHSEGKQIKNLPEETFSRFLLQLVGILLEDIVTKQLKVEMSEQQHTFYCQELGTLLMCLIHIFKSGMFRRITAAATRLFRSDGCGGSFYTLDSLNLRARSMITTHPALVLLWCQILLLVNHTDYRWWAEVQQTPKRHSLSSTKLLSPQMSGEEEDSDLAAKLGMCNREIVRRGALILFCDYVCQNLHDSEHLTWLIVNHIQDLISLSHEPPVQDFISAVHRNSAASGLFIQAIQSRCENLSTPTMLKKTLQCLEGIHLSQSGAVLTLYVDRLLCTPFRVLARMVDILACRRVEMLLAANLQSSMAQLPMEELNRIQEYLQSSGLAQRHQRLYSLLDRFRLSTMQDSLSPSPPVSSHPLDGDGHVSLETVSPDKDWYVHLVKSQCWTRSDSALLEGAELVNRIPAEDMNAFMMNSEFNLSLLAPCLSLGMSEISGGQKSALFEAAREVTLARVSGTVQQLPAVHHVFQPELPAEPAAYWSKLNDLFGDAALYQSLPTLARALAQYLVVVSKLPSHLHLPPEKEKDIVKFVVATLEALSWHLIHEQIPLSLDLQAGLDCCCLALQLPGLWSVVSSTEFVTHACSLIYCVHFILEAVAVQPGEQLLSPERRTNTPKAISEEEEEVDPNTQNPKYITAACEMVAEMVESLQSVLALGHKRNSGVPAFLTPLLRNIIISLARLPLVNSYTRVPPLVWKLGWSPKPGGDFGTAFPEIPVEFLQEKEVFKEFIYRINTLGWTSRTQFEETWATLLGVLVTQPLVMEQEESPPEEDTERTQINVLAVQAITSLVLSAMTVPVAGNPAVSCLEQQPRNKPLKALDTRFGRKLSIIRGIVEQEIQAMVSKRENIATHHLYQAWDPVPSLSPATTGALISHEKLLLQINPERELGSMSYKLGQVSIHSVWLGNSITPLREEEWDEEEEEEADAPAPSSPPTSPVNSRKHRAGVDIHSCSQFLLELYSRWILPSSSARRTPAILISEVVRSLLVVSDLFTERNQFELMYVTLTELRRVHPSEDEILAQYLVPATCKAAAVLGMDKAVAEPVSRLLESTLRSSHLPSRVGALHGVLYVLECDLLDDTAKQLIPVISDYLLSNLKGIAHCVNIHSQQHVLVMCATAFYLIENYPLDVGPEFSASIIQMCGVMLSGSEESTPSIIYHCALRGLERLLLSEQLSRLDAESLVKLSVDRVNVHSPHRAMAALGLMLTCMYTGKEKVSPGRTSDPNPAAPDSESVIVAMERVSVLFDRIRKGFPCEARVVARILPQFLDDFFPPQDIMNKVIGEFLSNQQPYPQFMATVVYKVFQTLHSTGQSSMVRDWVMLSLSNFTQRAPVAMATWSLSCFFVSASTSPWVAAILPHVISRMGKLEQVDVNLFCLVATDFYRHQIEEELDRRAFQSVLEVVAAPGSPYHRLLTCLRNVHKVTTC
In words: Q46 Radioligand Binding Assay (RBA), displacement of [^3H3]MK-3328. To be noted: 10 nM [^3H3]MK-3328, 5 μM Q46 protein aggregates. The protocol:
For radioligand binding assays (RBA) GST-Q46 protein was generated based on a previous publication (Scherzinger et al. Cell, Vol. 90, 549-558, Aug. 8, 1997). For experiments 33 μM GST-Q46 was incubated with 150 μg/mL thrombin in assay buffer (150 mM NaCl, 50 mM Tris pH 8.0) and 2 mM CaCl2 for 16 hours at 37° C. Aggregated Q46 was pelleted by centrifugation for 5 minutes at 13,000 rpm in a bench top centrifuge and re-dissolved in the same volume of assay buffer. Test compounds were prepared by titration in DMSO at 11 concentrations from 33 μM to 1 nM. For the RBA, Q46 protein aggregates and test compounds were pre-incubated in assay buffer for 20 minutes at room temperature, in 140 μL/well in a 96-well plate (pp, round bottom). Then, ligand was added in 10 μL/well and incubated for 60 minutes at 37° C. Final assay concentrations were 1 μM to 30 pM test compound, 5 μM Q46 protein (equivalent monomer concentration) and 10 nM ligand [^3H3]MK-3328 (Harrision et al., ACS Med. Chem. Lett., 2 (2011), pp 498-502). Samples were transferred onto GF/B filter plates and washed 2× with 200 μL PBS using a Filtermate Harvester. After drying filter plates for 1 hour at 37° C., the back of the plates was sealed with foil and 30 μl/well scintillation fluid (Packard MicroScint 40) was added, incubated for incubated for 15 minutes in the dark and counted in a TopCount reader. For analysis, replicate data from independent assay plates were normalized towards 0% and 100% inhibition using control wells of vehicle (0% inhibition) and 3 μM unlabelled MK-3328 (100% inhibition). IC50 values were determined with a sigmoidal inhibition model with four variables (top, bottom, slope, IC50) in a global fit using the normalized replicate data.
A word on the IC50: it is the concentration that gives 50% inhibition. With `COc1cncc(NC(=O)c2cn3c(n2)sc2ncc(OC)cc23)c1` [11-methoxy-N-(5-methoxypyridin-3-yl)-7-thia-2,5,9-triazatricyclo[6.4.0.0^2,6]dodeca-1(12),3,5,8,10-pentaene-4-carboxamide], the IC50 was less than 100 nM.

For the compound `COc1cncc(NC(=O)c2ccn3c(n2)nc2ccc(-c4cncc(OC)c4)cc23)c1` [N,4-bis(5-methoxypyridin-3-yl)-1,8,10-triazatricyclo[7.4.0.0^2,7]trideca-2(7),3,5,8,10,12-hexaene-11-carboxamide], the IC50 is less than 100 nM.

Consider `COc1cncc(NC(=O)c2ccn3c(n2)nc2cc(-c4cncc(OC)c4)ccc23)c1` [N,5-bis(5-methoxypyridin-3-yl)-1,8,10-triazatricyclo[7.4.0.0^2,7]trideca-2(7),3,5,8,10,12-hexaene-11-carboxamide], for which the IC50 is less than 100 nM.

Consider `COc1ccc2c(c1)sc1nc(C(=O)Nc3ccc4occc4c3)cn12` [N-(1-benzofuran-5-yl)-10-methoxy-7-thia-2,5-diazatricyclo[6.4.0.0^2,6]dodeca-1(12),3,5,8,10-pentaene-4-carboxamide], for which the IC50 is less than 100 nM.

Consider `Cn1cc(NC(=O)c2ccn3c(n2)nc2ccccc23)cnc1=O` [N-(1-methyl-2-oxo-1,2-dihydropyrimidin-5-yl)-1,8,10-triazatricyclo[7.4.0.0^2,7]trideca-2(7),3,5,8,10,12-hexaene-11-carboxamide], for which the IC50 was less than 100 nM.

Regarding `Cn1nc(NC(=O)c2ccn3c(n2)nc2ccccc23)ccc1=O` [N-(1-methyl-6-oxo-1,6-dihydropyridazin-3-yl)-1,8,10-triazatricyclo[7.4.0.0^2,7]trideca-2(7),3,5,8,10,12-hexaene-11-carboxamide], the IC50 is less than 100 nM.

`C=CCOc1ccc2c(c1)sc1nc(C(=O)Nc3ccc(=O)n(C)n3)cn12` [N-(1-methyl-6-oxo-1,6-dihydropyridazin-3-yl)-10-(prop-2-en-1-yloxy)-7-thia-2,5-diazatricyclo[6.4.0.0^2,6]dodeca-1(12),3,5,8,10-pentaene-4-carboxamide] registered an IC50 of less than 100 nM.

The compound `Cn1cc(NC(=O)c2ccn3c(n2)nc2ccccc23)ccc1=O` [N-(1-methyl-6-oxo-1,6-dihydropyridin-3-yl)-1,8,10-triazatricyclo[7.4.0.0^2,7]trideca-2(7),3,5,8,10,12-hexaene-11-carboxamide] registered an IC50 of 100 to 500 nM.

Take `COc1cc(NC(=O)c2ccn3c(n2)nc2ccccc23)ccn1` [N-(2-methoxypyridin-4-yl)-1,8,10-triazatricyclo[7.4.0.0^2,7]trideca-2(7),3,5,8,10,12-hexaene-11-carboxamide]: the IC50 is less than 100 nM.

For `COc1nccc(NC(=O)c2ccn3c(n2)nc2ccccc23)c1C#N` [N-(3-cyano-2-methoxypyridin-4-yl)-1,8,10-triazatricyclo[7.4.0.0^2,7]trideca-2(7),3,5,8,10,12-hexaene-11-carboxamide], the IC50 is less than 100 nM.

As to `N#Cc1cnccc1NC(=O)c1ccn2c(n1)nc1ccccc12` [N-(3-cyanopyridin-4-yl)-1,8,10-triazatricyclo[7.4.0.0^2,7]trideca-2(7),3,5,8,10,12-hexaene-11-carboxamide], the IC50 is less than 100 nM.

Compound `COc1ccc2c(c1)nc1nc(C(=O)Nc3ccncc3C#N)ccn12` [N-(3-cyanopyridin-4-yl)-5-methoxy-1,8,10-triazatricyclo[7.4.0.0^2,7]trideca-2(7),3,5,8,10,12-hexaene-11-carboxamide] had an IC50 of less than 100 nM.

On to `COc1cc(NC(=O)c2ccn3c(n2)nc2ccccc23)cnc1OC` [N-(5,6-dimethoxypyridin-3-yl)-1,8,10-triazatricyclo[7.4.0.0^2,7]trideca-2(7),3,5,8,10,12-hexaene-11-carboxamide], for which the IC50 is less than 100 nM.

For the compound `COc1cncc(NC(=O)c2ccn3c(n2)nc2ccccc23)c1` [N-(5-methoxypyridin-3-yl)-1,8,10-triazatricyclo[7.4.0.0^2,7]trideca-2(7),3,5,8,10,12-hexaene-11-carboxamide], the IC50 was less than 100 nM.

For the compound `COc1cncc(NC(=O)c2cn3c(n2)sc2ccccc23)c1` [N-(5-methoxypyridin-3-yl)-7-thia-2,5-diazatricyclo[6.4.0.0^2,6]dodeca-1(12),3,5,8,10-pentaene-4-carboxamide], the IC50 is less than 100 nM.

The compound `COc1cncc(NC(=O)c2cn3c(n2)sc2cc(-c4ccccc4)ccc23)c1` [N-(5-methoxypyridin-3-yl)-10-phenyl-7-thia-2,5-diazatricyclo[6.4.0.0^2,6]dodeca-1(12),3,5,8,10-pentaene-4-carboxamide] returned an IC50 of less than 100 nM.

`O=C(Nc1ccc(F)nc1)c1ccn2c(n1)nc1ccccc12` [N-(6-fluoropyridin-3-yl)-1,8,10-triazatricyclo[7.4.0.0^2,7]trideca-2(7),3,5,8,10,12-hexaene-11-carboxamide] came in with an IC50 of less than 100 nM.

`COc1ccc2c(c1)sc1nc(C(=O)Nc3ccc(F)nc3)cn12` [N-(6-fluoropyridin-3-yl)-10-methoxy-7-thia-2,5-diazatricyclo[6.4.0.0^2,6]dodeca-1(12),3,5,8,10-pentaene-4-carboxamide] had an IC50 of less than 100 nM.

`COc1ccc(NC(=O)c2ccn3c(n2)nc2ccccc23)cn1` [N-(6-methoxypyridin-3-yl)-1,8,10-triazatricyclo[7.4.0.0^2,7]trideca-2(7),3,5,8,10,12-hexaene-11-carboxamide] showed an IC50 of less than 100 nM.

For the compound `O=C(Nc1ccc(=O)[nH]n1)c1ccn2c(n1)nc1ccccc12` [N-(6-oxo-1,6-dihydropyridazin-3-yl)-1,8,10-triazatricyclo[7.4.0.0^2,7]trideca-2(7),3,5,8,10,12-hexaene-11-carboxamide], the half-inhibitory concentration (IC50) was less than 100 nM.

`O=C(Nc1ccc(=O)[nH]c1)c1ccn2c(n1)nc1ccccc12` [N-(6-oxo-1,6-dihydropyridin-3-yl)-1,8,10-triazatricyclo[7.4.0.0^2,7]trideca-2(7),3,5,8,10,12-hexaene-11-carboxamide]: the IC50 was less than 100 nM.

On to `O=C(Nc1cccnc1)c1ccn2c(n1)nc1ccccc12` [N-(pyridin-3-yl)-1,8,10-triazatricyclo[7.4.0.0^2,7]trideca-2(7),3,5,8,10,12-hexaene-11-carboxamide], for which the concentration for half-maximal inhibition (IC50) was more than 500 nM.

As for `COc1ccc2c(c1)sc1nc(CNc3cccnc3)cn12` [N-({10-methoxy-7-thia-2,5-diazatricyclo[6.4.0.0^2,6]dodeca-1(12),3,5,8,10-pentaen-4-yl}methyl)pyridin-3-amine], the IC50 was more than 500 nM.

In turn, `COc1ccc2c(c1)sc1nc(C(=O)NCCN(C)C)cn12` [N-[2-(dimethylamino)ethyl]-10-methoxy-7-thia-2,5-diazatricyclo[6.4.0.0^2,6]dodeca-1(12),3,5,8,10-pentaene-4-carboxamide] showed an IC50 of 100 to 500 nM.

`COCCOc1cncc(NC(=O)c2ccn3c(n2)nc2ccccc23)c1` [N-[5-(2-methoxyethoxy)pyridin-3-yl]-1,8,10-triazatricyclo[7.4.0.0^2,7]trideca-2(7),3,5,8,10,12-hexaene-11-carboxamide]: the IC50 was less than 100 nM.

For the compound `COc1ccc2c(c1)nc1nc(C(=O)Nc3ccc(-n4ccnc4)nc3)ccn12` [N-[6-(1H-imidazol-1-yl)pyridin-3-yl]-5-methoxy-1,8,10-triazatricyclo[7.4.0.0^2,7]trideca-2(7),3,5,8,10,12-hexaene-11-carboxamide], the IC50 is less than 100 nM.
